This note sets out measurements from ChEMBL document CHEMBL5154883, “Conformational Constrained 4-(1-Sulfonyl-3-indol)yl-2-phenylaminopyrimidine Derivatives as New Fourth-Generation Epidermal Growth Factor Receptor Inhibitors Targeting T790M/C797S Mutations” (J Med Chem, 2022).

One data set deals with A-431. The experiment in a line: Antiproliferative activity against human A-431 cells harboring wild type EGFR assessed as reduction in cell viability incubated for 72 hrs by CCK-8 assay. The data set is classed as functional, cell-based. The settings on record: A-431, 72 h. A general note: Formazan colour is commonly taken as a measure of viable cells.
Data set [1] deals with BaF3. The experiment in a line: Antiproliferative activity against mouse BaF3 cells harboring EGFR 19 del/T790M/C797S mutant assessed as reduction in cell viability incubated for 72 hrs by CCK8 assay. The data set is classed as functional, cell-based. Particulars: BaF3, 72 h.
The next data set deals with PC-9. The experiment in a line: Antiproliferative activity against human osimertinib-resistant PC-9 cells harboring EGFR 19 del/T790M/C797S mutant assessed as reduction in cell viability incubated for 72 hrs by CCK-8 assay. The data set is classed as functional, cell-based. The settings on record: PC-9, 72 h.
Data set [2] has as its target Epidermal growth factor receptor (Homo sapiens, UniProt P00533, C797S/L858R/T790M). The experiment in a line: Inhibition of EGFR L858R/T790M/C797S mutant (unknown origin) by ELISA. In general terms: ELISA stands for enzyme-linked immunosorbent assay.
Data set [3] has as its target Epidermal growth factor receptor (Homo sapiens, UniProt P00533). The experiment in a line: Inhibition of wild type EGFR (unknown origin) by ELISA.
In data set [4] the test system is BaF3. The experiment in a line: Antiproliferative activity against mouse BaF3 cells stably expressing EGFR L858R/T790M/C797S mutant assessed as inhibition of cell growth incubated for 72 hrs by CCK-8 assay. In kind it is functional, cell-based. The settings on record: BaF3, 72 h.
The nature of data set [5]: Cytotoxicity against mouse IL-3 dependent BaF3 cells assessed as inhibition of cell growth incubated for 72 hrs by CCK-8 assay. In kind it is toxicity, cell-based. The settings on record: BaF3 cells (IL-3 dependent).
Data set [6] relates to Epidermal growth factor receptor (Homo sapiens), P04626+P00533+Q15303+P21860 [L858R,T790M,C797S]. The experiment in a line: Inhibition of EGFR L858R/T790M/[…] mutant in mouse starved BaF3 cells assessed as reduction in EGFR phosphorylation incubated for 120 mins followed by EGF stimulation for 15 mins by Western blot analysis. The settings on record: time 135.0 min, DDE = dose-dependent effect. In kind it is cell-based. (A western blot detects proteins with antibodies after separation by electrophoresis.)

Data set [7] has as its system BaF3. The experiment in a line: Inhibition of EGFR 19del/T790M/[…] mutant in mouse starved BaF3 cells assessed as reduction in EGFR phosphorylation incubated for 120 mins followed by EGF stimulation for 15 mins by Western blot analysis. The data set is classed as cell-based. Particulars: time 135.0 min, DDE = dose-dependent effect.
For data set [8], the system named is Epidermal growth factor receptor (Homo sapiens), P00533 [UNDEFINED MUTATION]. The experiment in a line: Inhibition of EGFR 19 del/T790M/C797S mutant in human starved osimertinib-resistant PC-9 cells assessed as reduction in EGFR phosphorylation incubated for 120 mins followed by EGF stimulation for 15 mins by Western blot analysis. The data set is classed as cell-based. Particulars: time 135.0 min, DDE = dose-dependent effect.
Chain of Epidermal growth factor receptor (Homo sapiens), P00533 [UNDEFINED MUTATION] (P00533 whole entry, looked up, stated change not applied): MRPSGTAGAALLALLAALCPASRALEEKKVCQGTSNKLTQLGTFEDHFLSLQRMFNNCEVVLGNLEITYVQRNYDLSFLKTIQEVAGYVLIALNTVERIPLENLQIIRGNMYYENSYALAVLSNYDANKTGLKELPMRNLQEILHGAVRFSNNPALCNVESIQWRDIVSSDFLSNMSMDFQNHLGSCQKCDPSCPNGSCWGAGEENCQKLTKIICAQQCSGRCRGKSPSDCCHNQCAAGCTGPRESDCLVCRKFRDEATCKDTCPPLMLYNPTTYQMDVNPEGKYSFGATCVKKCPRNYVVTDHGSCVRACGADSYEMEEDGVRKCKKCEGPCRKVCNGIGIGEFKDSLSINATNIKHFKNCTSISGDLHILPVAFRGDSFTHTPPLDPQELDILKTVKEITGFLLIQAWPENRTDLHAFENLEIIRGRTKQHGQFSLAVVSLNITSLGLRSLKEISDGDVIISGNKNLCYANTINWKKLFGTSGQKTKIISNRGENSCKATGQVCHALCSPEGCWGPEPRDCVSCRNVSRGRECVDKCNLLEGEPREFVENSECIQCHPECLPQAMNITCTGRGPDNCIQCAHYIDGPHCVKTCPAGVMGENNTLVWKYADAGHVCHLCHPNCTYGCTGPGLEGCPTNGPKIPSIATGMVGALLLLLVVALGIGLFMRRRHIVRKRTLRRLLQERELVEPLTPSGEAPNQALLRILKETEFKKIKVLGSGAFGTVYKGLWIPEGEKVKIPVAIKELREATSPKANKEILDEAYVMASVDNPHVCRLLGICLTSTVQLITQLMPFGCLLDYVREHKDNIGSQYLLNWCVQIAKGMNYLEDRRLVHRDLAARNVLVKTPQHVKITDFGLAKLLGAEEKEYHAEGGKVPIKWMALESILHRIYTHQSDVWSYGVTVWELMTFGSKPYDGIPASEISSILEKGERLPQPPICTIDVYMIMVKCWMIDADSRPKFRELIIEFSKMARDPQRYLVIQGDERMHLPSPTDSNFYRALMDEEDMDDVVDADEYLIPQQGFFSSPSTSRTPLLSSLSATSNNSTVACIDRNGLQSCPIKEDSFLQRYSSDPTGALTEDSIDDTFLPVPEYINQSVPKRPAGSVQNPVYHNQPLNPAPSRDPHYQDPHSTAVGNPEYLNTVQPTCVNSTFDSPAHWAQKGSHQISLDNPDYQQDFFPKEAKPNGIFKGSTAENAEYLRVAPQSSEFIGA

In data set [9] the test system is Epidermal growth factor receptor (Homo sapiens), P04626+P00533+Q15303+P21860 [L858R,T790M,C797S]. The experiment in a line: Inhibition of EGFR L858R/T790M/[…] mutant in mouse starved BaF3 cells assessed as reduction in ERK phosphorylation incubated for 120 mins followed by EGF stimulation for 15 mins by Western blot analysis. In kind it is cell-based. Particulars: time 135.0 min, DDE = dose-dependent effect.

The test system of data set [10] is BaF3. The experiment in a line: Inhibition of EGFR 19del/T790M/[…] mutant in mouse starved BaF3 cells assessed as reduction in ERK phosphorylation incubated for 120 mins followed by EGF stimulation for 15 mins by Western blot analysis. Particulars: time 135.0 min, DDE = dose-dependent effect. In kind it is cell-based.
For data set [11], the system named is Epidermal growth factor receptor (Homo sapiens), P00533 [UNDEFINED MUTATION]. The experiment in a line: Inhibition of EGFR 19 del/T790M/C797S mutant in human starved osimertinib-resistant PC-9 cells assessed as reduction in ERK phosphorylation incubated for 120 mins followed by EGF stimulation for 15 mins by Western blot analysis. Particulars: time 135.0 min, DDE = dose-dependent effect. The data set is classed as cell-based.

As a reminder, the pIC50 is the IC50 on a negative log10 scale, so that one unit is a factor of ten. For orientation: IC50 means the midpoint of a concentration-inhibition curve.

pIC50: −log10 of the molar value.

Chain of Epidermal growth factor receptor (Homo sapiens, UniProt P00533, C797S/L858R/T790M) (P00533 25-1210 T790M/C797S/L858R limits assumed): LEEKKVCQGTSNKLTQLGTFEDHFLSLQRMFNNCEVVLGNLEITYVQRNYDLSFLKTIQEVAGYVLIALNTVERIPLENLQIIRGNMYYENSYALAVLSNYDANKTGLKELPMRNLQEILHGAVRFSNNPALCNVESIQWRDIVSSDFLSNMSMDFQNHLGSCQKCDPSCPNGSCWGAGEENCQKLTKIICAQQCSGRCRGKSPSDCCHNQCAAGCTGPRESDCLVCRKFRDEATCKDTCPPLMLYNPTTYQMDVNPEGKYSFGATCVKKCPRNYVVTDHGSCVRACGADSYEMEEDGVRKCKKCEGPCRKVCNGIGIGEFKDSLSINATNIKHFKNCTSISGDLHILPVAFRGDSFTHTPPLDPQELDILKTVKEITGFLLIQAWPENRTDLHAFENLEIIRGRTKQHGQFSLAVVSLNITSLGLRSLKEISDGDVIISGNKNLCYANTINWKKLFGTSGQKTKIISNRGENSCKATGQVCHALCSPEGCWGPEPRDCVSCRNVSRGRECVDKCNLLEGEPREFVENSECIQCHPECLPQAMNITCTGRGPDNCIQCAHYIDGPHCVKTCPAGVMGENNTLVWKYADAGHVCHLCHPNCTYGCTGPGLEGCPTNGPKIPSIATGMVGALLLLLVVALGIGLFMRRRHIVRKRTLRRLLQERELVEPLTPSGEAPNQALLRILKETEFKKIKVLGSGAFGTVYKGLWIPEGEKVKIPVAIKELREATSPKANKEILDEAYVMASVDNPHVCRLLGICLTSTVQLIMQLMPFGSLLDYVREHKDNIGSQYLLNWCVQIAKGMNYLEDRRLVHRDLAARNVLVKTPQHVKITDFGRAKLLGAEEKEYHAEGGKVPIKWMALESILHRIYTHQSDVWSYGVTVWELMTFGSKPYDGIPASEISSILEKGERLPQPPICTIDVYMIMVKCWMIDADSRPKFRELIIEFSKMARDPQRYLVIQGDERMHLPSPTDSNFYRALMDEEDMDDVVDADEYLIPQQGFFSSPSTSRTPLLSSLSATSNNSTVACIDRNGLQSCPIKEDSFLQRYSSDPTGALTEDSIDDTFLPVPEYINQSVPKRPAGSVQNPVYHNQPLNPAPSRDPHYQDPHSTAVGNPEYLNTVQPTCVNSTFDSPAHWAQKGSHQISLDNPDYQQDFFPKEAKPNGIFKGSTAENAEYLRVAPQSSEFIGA
Chain of Epidermal growth factor receptor (Homo sapiens, UniProt P00533) (P00533 whole entry): as the sequence (P00533 whole entry, looked up, stated change not applied) above

In the case of `CCS(=O)(=O)n1cc2c3ccc(cc31)OCCCCCCOc1cc(c(C)cc1N1CCOCC1)Nc1ncc(Cl)c-2n1`, the pIC50 with A-431 is 5.70; in the data set with BaF3 [1], 7.28; with PC-9 it was 6.19; in data set [2] it was 7.63; in data set [3], 6.51; in the data set on BaF3 [4], 7.44. Moreover, the IC50 at 72 h in data set [5] is 2.08 µM. The inhibition entry (in data set [6]; in the data set with BaF3 [7]; in data set [8]; in data set [9]; with BaF3 [10]; in data set [11]) was “Dde” each time.
